The values that follow are results of earlier work, collected in patent publication US20150087671A1, “LOW BURST SUSTAINED RELEASE LIPOPHILIC AND BIOLOGIC AGENT COMPOSITIONS” (Micell Technologies, Inc., priority 2012, published 2015).

The structures appear in SMILES notation. pIC50: −log10 of the molar value.

For one series, the target named is mTOR (Homo sapiens, UniProt P42345).
For another series, the system named is PI3K/mTOR. Particulars: read-out: IC50, dual PI3K/mTOR inhibitor (target not specified further).
Series [1] concerns phosphorylation of AKT T308.

Turning to `CO[C@H]1C[C@@H]2CC[C@@H](C)[C@@](O)(O2)C(=O)C(=O)N2CCCC[C@H]2C(=O)O[C@H]([C@H](C)C[C@@H]2CC[C@@H](OCCO)[C@H](OC)C2)CC(=O)[C@H](C)/C=C(\C)[C@@H](O)[C@@H](OC)C(=O)[C@H](C)C[C@H](C)/C=C/C=C/C=C/1C` [Everolimus, 40-O-(2-Hydroxyethyl)rapamycin], the pIC50 at mTOR is 9.20.

Turning to `COc1ccc(-c2ccc3ncc4c(c3c2)n(-c2ccc(N3CCNCC3)c(C(F)(F)F)c2)c(=O)n4C)cn1` [NVP-BGT226], in the series on PI3K/mTOR, the pIC50 was 9.00.

Turning to `COc1ccc(-c2cc3c(C)nc(N)nc3n([C@H]3CC[C@H](OCCO)CC3)c2=O)cn1` [PF-04691502], the pIC50 in series [1] is 8.12.

Turning to `Nc1ncnc2c1c(-c1cnc3[nH]ccc3c1)nn2C1CCCC1` [PP121], the pIC50 with PDGFR was 8.70.

As usually defined, the GI50 is the concentration giving 50% growth inhibition. For the molecule `COc1ccc(COc2cc3oc(=O)c4cc(C(C)O)ccc4c3cc2OC)cc1` (stereo not shown) [Palomid 529], in the series on NCI-60 cell lines panel, the GI50 was less than 35000 nM.

As a reminder, the bioavailability is the share of a dose that reaches the circulation, judged against a reference dose that is usually intravenous. Take `CO[C@H]1C[C@@H]2CC[C@@H](C)[C@@](O)(O2)C(=O)C(=O)N2CCCC[C@H]2C(=O)O[C@H]([C@H](C)C[C@@H]2CC[C@@H](O)[C@H](OC)C2)CC(=O)[C@H](C)/C=C(\C)[C@@H](O)[C@@H](OC)C(=O)[C@H](C)C[C@H](C)/C=C/C=C/C=C/1C` [Rapamycin, rapamycin]: under “Rapamune oral tablets or solution”, the bioavailability is less than 14%. Besides, where the note is “once daily oral dosing, immunosuppressive dose 2 or 5 mg daily”, the blood concentrations is 6 to 50 ng/mL.

With `c1cncc(CN2CCC(n3ncc4c(N5CCOCC5)nc(-c5ccc6[nH]ccc6c5)nc43)CC2)c1` [WAY-600], the pIC50 on mTOR was 8.05.

Take `COC(=O)Nc1ccc(-c2nc(N3CCOCC3)c3cnn(C4CCN(C(=O)OC)CC4)c3n2)cc1` [WYE-354]: the pIC50 at mTOR was 8.30.

Consider `CNC(=O)Nc1ccc(-c2nc(N3CC4CCC(C3)O4)c3cnn(C4CCC5(CC4)OCCO5)c3n2)cc1` [WYE-125132], for which the pIC50 at mTOR was 9.72.
